Experimental data as given in patent publication US3996359A, “Novel stereoisomeric component A of stereoisomeric mixtures of 2'-unsymmetrical 16,17-methylenedioxy steroid 21-acylates, compositions thereof, and method of treating therewith” (AB Bofors, priority 1972, dated 1976).

System: rats subjected to adrenalectomy (granuloma around implanted cotton wads)
Assay: granulom test (cotton-pellet test) on rats subjected to adrenalectomy: granuloma growth, thymus weight, body weight increase
Type: in vivo, rat (Sprague-Dawley)
Details: for Dose required to obtain 50% inhibition of Granuloma growth: Table 3, adrenalectomized young male Sprague-Dawley rats, topical in implanted cotton wads, day 8; for Dose required to obtain 25% inhibition of Body weight Increase / Dose required to obtain 50% inhibition of Thymus weight: 11520 min
Excerpt: In the following this active stereoisomeric component will always be designated B. As regards the steroids referred to in connection with the present invention the stereoisomeric mixture as well as the individual stereoisomeric components A and B have been investigated with regard to antiinflammatory activity in granulom test on rats subjected to adrenalectomy. The experimental procedure used corresponds largely to that described by G. Engelhardt: Arzneimittel-Forschung, 13, p. 588, 1963. According to this procedure the test substances are applied topically in the implanted cottom wads. It is thereby possible to study the local antiinflammatory effect in granulomas and also systemic effects in the form of retrogression of thymus and inhibition of bodyweight growth.
Young male rats of the Sprague-Dawley strain weighing about 110-130 g were subjected to adrenalectomy under ether narcosis. Two sterilized cottom wads of each about 6 mg were implanted simultaneously subcutaneously on the lateral side of the spinal. After awakening the animals were stored 5 per cage and were supplied with normal food and 1% sodium chloride solution as drinking water. On the eighth test day the animals were sacrificed by ether narcosis. The granuloma formed around the cotton wads were carefully recovered and thymus and body weights were measured. The two granuloma from each animal were dried over night at 80° C and weighed. After subtraction of the initial weight of the cotton wads the weight increase was used as a measure of the granulom growth.
The test substances were used dissolved in ethyl acetate. Under aseptic conditions 0.05 ml of said solutions were injected into each of the cotton wads, whereafter the solvent was allowed to evaporate in the desiccator. Normally 3 concentrations of each test substance with the standard doses 3.3, 30 and 270 γ/animal were investigated. Each test group normally comprised 10 rats. The cotton wads of the control group were injected with only ethyl acetate, but were in other respects treated in the same way. When considering the effects of the test substances the average values of granulom growth, thymus weight and body weight increase day 0-8 were measured in each group in absolute figures and in % of the corresponding figure of the control group. Dose-response curves were drafted and used for estimating the doses giving 50 % reduction of granulom growth and of thymus weight and 25 % decrease of body weight increase.
The following Table 4 discloses the results of the cotton-pellet test hereinbefore described, giving in addition figures for the therapeutic ratios, that is, the ratios of the ED50 for thymus weight inhibition divided by the ED50 for granuloma formation inhibition, and the ED25 for body weight increase inhibition over the ED50 for granuloma formation inhibition. As will be recognized, the higher the number for the therapeutic ratio, the more favorable the therapeutic ratio. […] As will be noted for the table, the therapeutic ratio for thymus over granuloma for the Component A esters is 4.2, 7.1, 4.5, 2.6, 2.2, 1.7, 2.5 and 1.7 times as good as it is for the corresponding Component B ester isomer, whereas the therapeutic ratio for the Component A ester isomer as far as body weight is granuloma 2.7, 3.3, 9.8, 6.4, 2.3, 2.8, 3.3 and 2.8 times as favorable as for the corresponding Component B ester isomer.

SMILES	Dose required to obtain 50% inhibition of Granuloma growth	Dose required to obtain 25% inhibition of Body weight Increase (rat, in vivo)	Dose required to obtain 50% inhibition of Thymus weight (rat, in vivo)	ED25 body weight increase inhibition (rat, in vivo) [µg/animal]	ED50 thymus weight inhibition (rat, in vivo) [µg/animal]	Therapeutic ratio body weight/granuloma (rat, in vivo)	Therapeutic ratio thymus/granuloma (rat, in vivo)	Therapeutic ratio body weight/granuloma (Table 4, ED25 body weight increase inhibition over ED50 granuloma formation inhibition)	Therapeutic ratio thymus/granuloma (Table 4, ED50 thymus weight inhibition divided by ED50 granuloma formation inhibition)
CCCC1OC2CC3C4CC(F)C5=CC(=O)C=CC5(C)C4(F)C(O)CC3(C)C2(C(=O)COC(=O)c2cc3ccccc3o2)O1 (mixture of isomers) [25 A+B]	< 3 γ/animal	10 γ/animal	10 γ/animal						
CCCCCC1O[C@@H]2C[C@H]3[C@@H]4CCC5=CC(=O)C=C[C@]5(C)[C@H]4[C@@H](O)C[C@]3(C)[C@]2(C(=O)CO)O1 (single isomer, unassigned) [13 A]	8 γ/animal	100 γ/animal	> 270 γ/animal						
CCCC1OC2CC3C4CCC5=CC(=O)C=CC5(C)C4(F)C(O)CC3(C)C2(C(=O)COC(=O)c2cccnc2)O1 (mixture of isomers) [21 A+B]	7 γ/animal	10 γ/animal	35 γ/animal						
CCCCCC1OC2CC3C4CCC5=CC(=O)C=CC5(C)C4(F)C(O)CC3(C)C2(C(=O)CO)O1 (mixture of isomers) [5 A+B]	17 γ/animal	> 270 γ/animal	130 γ/animal						
CCCC1O[C@@H]2C[C@H]3[C@@H]4CCC5=CC(=O)C=C[C@]5(C)[C@H]4[C@@H](O)C[C@]3(C)[C@]2(C(=O)COC(=O)c2cc3ccccc3o2)O1 (single isomer, unassigned) [28 A]				100	100	> 33.3	> 33.3		
CCCCC(=O)OCC(=O)[C@@]12OC(CCC)O[C@@H]1C[C@H]1[C@@H]3CCC4=CC(=O)C=C[C@]4(C)[C@@]3(F)[C@@H](O)C[C@@]12C (single isomer, unassigned) [22 A]	< 3 γ/animal	33 γ/animal	90 γ/animal	33	90	> 11.0	> 30.0		
CCCCC1O[C@@H]2C[C@H]3[C@@H]4CCC5=CC(=O)C=C[C@]5(C)[C@@]4(F)[C@@H](O)C[C@]3(C)[C@]2(C(=O)CO)O1 (single isomer, unassigned) [4 B]	< 3 γ/animal	100 γ/animal	50 γ/animal						
CCCCCC1O[C@@H]2C[C@H]3[C@@H]4CCC5=CC(=O)C=C[C@]5(C)[C@H]4[C@@H](O)C[C@]3(C)[C@]2(C(=O)CO)O1 (single isomer, unassigned) [13 B]	5 γ/animal	> 270 γ/animal	210 γ/animal						
CCC1O[C@@H]2C[C@H]3[C@@H]4CCC5=CC(=O)C=C[C@]5(C)[C@@]4(F)[C@@H](O)C[C@]3(C)[C@]2(C(=O)CO)O1 (single isomer, unassigned) [2 A]	25 γ/animal	90 γ/animal	130 γ/animal						
CC1O[C@@H]2C[C@H]3[C@@H]4CCC5=CC(=O)C=C[C@]5(C)[C@@]4(F)[C@@H](O)C[C@]3(C)[C@]2(C(=O)COC(=O)c2cc3ccccc3o2)O1 (stereo partly shown) [16 B]	3 γ/animal	10 γ/animal	10 γ/animal	10	10			3.3	3.3
CCCC1O[C@@H]2C[C@H]3[C@@H]4CCC5=CC(=O)C=C[C@]5(C)[C@@]4(F)[C@@H](O)C[C@]3(C)[C@]2(C(=O)COC(=O)c2cc3ccccc3o2)O1 (single isomer, unassigned) [20 B]	< 3 γ/animal	5 γ/animal	20 γ/animal	5	20	> 1.7	> 6.7		
CCCCCC1O[C@@H]2C[C@H]3[C@@H]4CCC5=CC(=O)C=C[C@]5(C)[C@H]4[C@@H](O)C[C@]3(C)[C@]2(C(=O)CO)O1 (stereo partly shown) [13 A+B]	10 γ/animal	90 γ/animal	175 γ/animal						
CCC1OC2CC3C4CCC5=CC(=O)C=CC5(C)C4(F)C(O)CC3(C)C2(C(=O)CO)O1 (mixture of isomers) [2 A+B]	35 γ/animal	140 γ/animal	100 γ/animal						
